Results: PubChem BioAssay AID2060612 (Molecular Pharmacology Branch, DTP, NCI, 2025)
Values belong to the molecule of their own block, whether it stands above or below them.

System: 565232-114-T-J1-PDC complex spheroid viability
Assay: Anticancer human tumor 565232-114-T-J1-PDC patient-derived bladder carcinoma cell line growth inhibition [CLK]
Settings: for IC50: curve of first compound; for viability, T/C: stronger effect = lower value
Summary of the method: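 Patient-derived tumor cells grown as complex spheroids with HUVEC endothelial cells and mesenchymal stem cells, treated with drug combinations. Concentrations descend in half-log steps from near clinical Cmax, or from 10 microM if Cmax unknown.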

[1] = second compound 0.0316 µM, first compound 0.0316 µM
[2] = second compound 0.0316 µM, first compound 0.1 µM
[3] = second compound 0.0316 µM, first compound 0.316 µM
[4] = second compound 0.0316 µM, first compound 1 µM
[5] = second compound 0.0316 µM, first compound 3.16 µM
[6] = second compound 0.0316 µM, first compound 10 µM
[7] = second compound 0.1 µM, first compound 0.0316 µM
[8] = second compound 0.1 µM, first compound 0.1 µM
[9] = second compound 0.1 µM, first compound 0.316 µM
[10] = second compound 0.1 µM, first compound 1 µM
[11] = second compound 0.1 µM, first compound 3.16 µM
[12] = second compound 0.1 µM, first compound 10 µM
[13] = second compound 0.316 µM, first compound 0.0316 µM
[14] = second compound 0.316 µM, first compound 0.1 µM
[15] = second compound 0.316 µM, first compound 0.316 µM
[16] = second compound 0.316 µM, first compound 1 µM
[17] = second compound 0.316 µM, first compound 3.16 µM
[18] = second compound 0.316 µM, first compound 10 µM
[19] = second compound 1 µM, first compound 0.0316 µM
[20] = second compound 1 µM, first compound 0.1 µM
[21] = second compound 1 µM, first compound 0.316 µM
[22] = second compound 1 µM, first compound 1 µM
[23] = second compound 1 µM, first compound 3.16 µM
[24] = second compound 1 µM, first compound 10 µM
[25] = second compound 3.16 µM, first compound 0.0316 µM
[26] = second compound 3.16 µM, first compound 0.1 µM
[27] = second compound 3.16 µM, first compound 0.316 µM
[28] = second compound 3.16 µM, first compound 1 µM
[29] = second compound 3.16 µM, first compound 3.16 µM
[30] = second compound 3.16 µM, first compound 10 µM
[31] = second compound 10 µM, first compound 0.0316 µM
[32] = second compound 10 µM, first compound 0.1 µM
[33] = second compound 10 µM, first compound 0.316 µM
[34] = second compound 10 µM, first compound 1 µM
[35] = second compound 10 µM, first compound 3.16 µM
[36] = second compound 10 µM, first compound 10 µM
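Note: spheroids exposed to compounds for 7 days before readout.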
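Throughout, for viability, T/C: 100% = DMSO vehicle wells with luminescence normalized to vehicle control.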

- IC50 (second compound 0.0316 µM): > 10000 nM
- IC50 (second compound 0.1 µM): > 10000 nM
- IC50 (second compound 0.316 µM): < 31.6 nM
- IC50 (second compound 1 µM): < 31.6 nM
- IC50 (second compound 3.16 µM): < 31.6 nM
- IC50 (second compound 10 µM): < 31.6 nM
Compound: C=CC(=O)N1CCN(c2nc(=O)n(-c3c(C)ccnc3C(C)C)c3nc(-c4c(O)cccc4F)c(F)cc23)C(C)C1 (stereo unspecified) + CNC(=O)c1ccc(Nc2nc(OC3CCCC3)c3c(-c4ccc5nc(C)oc5c4)c[nH]c3n2)c(OC)c1
- viability, T/C [1]: 102%
- viability, T/C [2]: 83.5%
- viability, T/C [3]: 98.2%
- viability, T/C [4]: 94.4%
- viability, T/C [5]: 105%
- viability, T/C [6]: 118%
- viability, T/C [7]: 64.9%
- viability, T/C [8]: 55.1%
- viability, T/C [9]: 57.2%
- viability, T/C [10]: 58.2%
- viability, T/C [11]: 69.6%
- viability, T/C [12]: 58.8%
- viability, T/C [13]: 35.3%
- viability, T/C [14]: 37.5%
- viability, T/C [15]: 34.3%
- viability, T/C [16]: 32.8%
- viability, T/C [17]: 42.5%
- viability, T/C [18]: 37.8%
- viability, T/C [19]: 21.6%
- viability, T/C [20]: 24.7%
- viability, T/C [21]: 25.1%
- viability, T/C [22]: 26.1%
- viability, T/C [23]: 29.1%
- viability, T/C [24]: 27.5%
- viability, T/C [25]: 21.4%
- viability, T/C [26]: 19.8%
- viability, T/C [27]: 21.8%
- viability, T/C [28]: 23.6%
- viability, T/C [29]: 28.3%
- viability, T/C [30]: 23.2%
- viability, T/C [31]: 22.1%
- viability, T/C [32]: 14.6%
- viability, T/C [33]: 18.9%
- viability, T/C [34]: 26%
- viability, T/C [35]: 28.1%
- viability, T/C [36]: 25%

- IC50 (second compound 0.0316 µM): 5980 nM
- IC50 (second compound 0.1 µM): 455 nM
- IC50 (second compound 0.316 µM): < 31.6 nM
- IC50 (second compound 1 µM): < 31.6 nM
- IC50 (second compound 3.16 µM): < 31.6 nM
- IC50 (second compound 10 µM): < 31.6 nM
Compound: CCCS(=O)(=O)Nc1ccc(F)c(C(=O)c2c[nH]c3ncc(-c4ccc(Cl)cc4)cc23)c1F + CNC(=O)c1ccc(Nc2nc(OC3CCCC3)c3c(-c4ccc5nc(C)oc5c4)c[nH]c3n2)c(OC)c1
- viability, T/C [1]: 95.7%
- viability, T/C [2]: 75.2%
- viability, T/C [3]: 75.3%
- viability, T/C [4]: 96.2%
- viability, T/C [5]: 110%
- viability, T/C [6]: 17.2%
- viability, T/C [7]: 56.5%
- viability, T/C [8]: 56.1%
- viability, T/C [9]: 50.7%
- viability, T/C [10]: 46.6%
- viability, T/C [11]: 30.8%
- viability, T/C [12]: 9.67%
- viability, T/C [13]: 36.1%
- viability, T/C [14]: 35.9%
- viability, T/C [15]: 32.9%
- viability, T/C [16]: 32.5%
- viability, T/C [17]: 26.3%
- viability, T/C [18]: 6.44%
- viability, T/C [19]: 23.7%
- viability, T/C [20]: 27.2%
- viability, T/C [21]: 26.4%
- viability, T/C [22]: 23.1%
- viability, T/C [23]: 16.4%
- viability, T/C [24]: 5.45%
- viability, T/C [25]: 19.1%
- viability, T/C [26]: 20.5%
- viability, T/C [27]: 18.4%
- viability, T/C [28]: 18.8%
- viability, T/C [29]: 18.9%
- viability, T/C [30]: 4.02%
- viability, T/C [31]: 20.4%
- viability, T/C [32]: 17.8%
- viability, T/C [33]: 18.1%
- viability, T/C [34]: 17.2%
- viability, T/C [35]: 11.6%
- viability, T/C [36]: 3.9%

- IC50 (second compound 0.0316 µM): 695 nM
- IC50 (second compound 0.1 µM): < 31.6 nM
- IC50 (second compound 0.316 µM): < 31.6 nM
- IC50 (second compound 1 µM): < 31.6 nM
- IC50 (second compound 3.16 µM): < 31.6 nM
- IC50 (second compound 10 µM): < 31.6 nM
Compound: COC1C=CCC(C)C(C)S(=O)(=O)NC(=O)c2ccc3c(c2)N(CC2CCC21)CC1(CCCc2cc(Cl)ccc21)CO3 (stereo unspecified) + CNC(=O)c1ccc(Nc2nc(OC3CCCC3)c3c(-c4ccc5nc(C)oc5c4)c[nH]c3n2)c(OC)c1
- viability, T/C [1]: 89.9%
- viability, T/C [2]: 103%
- viability, T/C [3]: 85.8%
- viability, T/C [4]: 33.2%
- viability, T/C [5]: 6.83%
- viability, T/C [6]: 3.49%
- viability, T/C [7]: 43.1%
- viability, T/C [8]: 36.9%
- viability, T/C [9]: 24.7%
- viability, T/C [10]: 19.2%
- viability, T/C [11]: 7.48%
- viability, T/C [12]: 5.14%
- viability, T/C [13]: 24.4%
- viability, T/C [14]: 19.1%
- viability, T/C [15]: 16.4%
- viability, T/C [16]: 9.76%
- viability, T/C [17]: 5.62%
- viability, T/C [18]: 3.86%
- viability, T/C [19]: 15.8%
- viability, T/C [20]: 14.5%
- viability, T/C [21]: 13.3%
- viability, T/C [22]: 7.06%
- viability, T/C [23]: 4.08%
- viability, T/C [24]: 2.86%
- viability, T/C [25]: 11.4%
- viability, T/C [26]: 11%
- viability, T/C [27]: 7.5%
- viability, T/C [28]: 4.35%
- viability, T/C [29]: 2.97%
- viability, T/C [30]: 3%
- viability, T/C [31]: 14.1%
- viability, T/C [32]: 9.12%
- viability, T/C [33]: 6.08%
- viability, T/C [34]: 5.45%
- viability, T/C [35]: 3.56%
- viability, T/C [36]: 3.09%
